Results taken from patent publication US20030207400A1, “Vectors for dna delivery” (priority 2003, published 2003).

Tested on: plasmid pCMV/mEPO
Assay: Gel electrophoresis of complexes of plasmid and fluorescently labelled polyamides
Assay type: binding
Details: agarose gel, after 10 min or 5 hr incubation; control rhodamine-peptide
Experimental: The ability of the polyamides to bind the DNA plasmid was assessed by gel electrophoresis of complexes of plasmid and fluorescently labelled polyamides.
A plasmid pCMV/mEPO was constructed by inserting the mouse EPO (mEPO) coding sequence as a EcoRI-BamHI 0.6 Kb fragment into pViJnsB (Montgomery, D. L., Shiver J. W., Leander K. R., Perry, H. C., Friedman, A., Martinez, D., Ulmer, J. B., Donnelly, J. J., Liu, M. A. (1993) DNA Cell. Biol. 12, 777-783.), which contains the CMV immediate/early region promoter and enhancer with intron A followed by the BGH polyadenylation signal. The mouse EPO coding region including 40 bp of the 5′ untranslated region (Shoemaker, C. B., & Mitsock, L. D. (1986) Mol. Cell. Biol. 6, 849-858) was assembled from synthetic oligonucleotides as described (Stemmer, W. P. C, Crameri, A., Ha, K. D., Brennan, T. M., & Heyneker, H. L. (1995) Gene 164, 49-53.).
In a typical experiment either the rhodamine labelled polyamide (33), the peptide-polyamide (35) and the correspondent rhodamine-peptide as control, were dissolved in DMSO at a 0.55 mM concentration. Serial dilutions of the polyamides and the peptide were prepared in DMSO. The plasmid stock solution was 0.54 μM. […]

“Rhodamine-Aoc-Pro-Lys-Lys-Lys-Arg-Lys-Val-Gluu-Asp-Pro-Tyr-Lys(Br—CH2—CO)-Gly-Gly-CO—NH2 [compound 34]” was tested, and the “co-migration of the fluorescent label with the plasmid” value was “does not co-migrate with the plasmid”.
